Results from patent US20260356834A1, “ANTICONVULSIVE COMPOUNDS AND USES THEREOF” (Jazz Pharmaceuticals Research UK Limite, priority 2023, published 2026).
Marks after values point to notes of the source that are not given here.

Test system: DBA/2 mice
Experiment: mouse audiogenic seizure test
Format: in vivo
Details: for Clonic convulsion - presence, Total / Tonic convulsion - presence, Total / Wild running - presence, Total: number of mice, n = 10
Description: The Audiogenic Seizure Test, which detects anticonvulsant activity, follows that described by Durmüller et al., 1993. Mice of the DBA/2 strain undergo an age-dependent sequence of convulsions (wild-running, clonic convulsion, tonic convulsion and respiratory arrest) within 60 seconds of exposure to a loud sound of 110-120 dB. The type of convulsions are consistent with aspects of generalised seizure in humans.
Male DBA/2 mice (3-4 weeks old) were supplied by Janvier Labs (53940 Le Genest-Saint-Isle, France); weight range 6-13 g at the beginning of the experiment. Animals were acclimatized to the Test Facility for 1 day after delivery and randomly housed in groups of 5 in macrolon cages on wood litter with free access to food and water.
The animal house was maintained under artificial lighting (12 hours) between 7:00 and 19:00 in a controlled ambient temperature of 22±2 °C and relative humidity between 30-70%.
Mice were individually transferred (at 3-5 minutes intervals) from the preparation room into an adjacent experimental room and body temperature was measured using a rectal thermometer (Digital Laboratory Thermometer: Model BAT-12). Immediately after, they were placed in a Plexiglas jar (Diameter=40 cm; Height=35 cm) mounted with an electric bell (110-120 dB, supplier Leroy Merlin, France). Upon activating the bell, the occurrences and latencies to wild running fits, clonic and tonic seizures were measured. Deaths were also recorded. The bell was activated until a tonic seizure occurred, or for a maximum of 60 seconds.
The experiment included groups of 10 mice per group. Experimenters were only partially blinded to treatment group as pre-treatment times were different.
The test substance was evaluated at various doses, administered i.p. (10 ml/kg) 15 or 30 minutes before the test, and compared with a vehicle control group.
Due to the number of animals tested, the experiment was divided in 2 sub-experiments on 2 separate days (7 days apart) with 5 mice per group in each sub-experiment.
Data were tested for normality using d'Agostino-Pearson Test and found to not follow a normal distribution. Statistical outliers were not identified or removed because no behavioural outliers were identified. Quantitative data (latencies) with the test substance were analyzed by comparing treated groups with vehicle control using Kruskal-Wallis test followed by Dunn's multiple comparisons test. Quantitative data with the reference substance were analyzed using Mann-Whitney U test. Quantal data (frequencies) were analyzed by comparing treated groups with vehicle control using Fisher's Exact Probability test.

CCCc1cc(O)c(-c2c(C)c(Cl)cn3ccnc23)c(O)c1 [Compound 4, 2-(6-Chloro-7-methylimidazo[1,2-a]pyridin-8-yl)-5-propylbenzene-1,3-diol]
Clonic convulsion - latency, Change from vehicle (3 mg/kg i.p., 30 min): −5% | Clonic convulsion - presence, % (3 mg/kg i.p., 30 min): 100% | Clonic convulsion - presence, Change from vehicle (3 mg/kg i.p., 30 min): 0% | Tonic convulsion - latency, Change from vehicle (3 mg/kg i.p., 30 min): +6% | Tonic convulsion - presence, % (3 mg/kg i.p., 30 min): 90% | Tonic convulsion - presence, Change from vehicle (3 mg/kg i.p., 30 min): −10% | Wild running - latency, Change from vehicle (3 mg/kg i.p., 30 min): −2% | Wild running - presence, % (3 mg/kg i.p., 30 min): 100% | Wild running - presence, Change from vehicle (3 mg/kg i.p., 30 min): 0% | Clonic convulsion - latency, Change from vehicle (10 mg/kg i.p., 30 min): +5% | Clonic convulsion - presence, % (10 mg/kg i.p., 30 min): 90% | Clonic convulsion - presence, Change from vehicle (10 mg/kg i.p., 30 min): −10% | Tonic convulsion - latency, Change from vehicle (10 mg/kg i.p., 30 min): +24% | Tonic convulsion - presence, % (10 mg/kg i.p., 30 min): 70% | Tonic convulsion - presence, Change from vehicle (10 mg/kg i.p., 30 min): −30% | Wild running - latency, Change from vehicle (10 mg/kg i.p., 30 min): +4% | Wild running - presence, % (10 mg/kg i.p., 30 min): 100% | Wild running - presence, Change from vehicle (10 mg/kg i.p., 30 min): 0% | latency to clonic convulsions (significance in words) (30 mg/kg i.p. vs vehicle): significantly increased | latency to tonic convulsions (significance in words) (30 mg/kg i.p. vs vehicle): significantly increased | latency to wild running (significance in words) (30 mg/kg i.p. vs vehicle): significantly increased | Clonic convulsion - latency, Change from vehicle (30 mg/kg i.p., 15 min): +368%** | Clonic convulsion - presence, % (30 mg/kg i.p., 15 min): 70% | Clonic convulsion - presence, Change from vehicle (30 mg/kg i.p., 15 min): −30% | Tonic convulsion - latency, Change from vehicle (30 mg/kg i.p., 15 min): +426%*** | Tonic convulsion - presence, % (30 mg/kg i.p., 15 min): 10% | Wild running - latency, Change from vehicle (30 mg/kg i.p., 15 min): +608%** | Wild running - presence, % (30 mg/kg i.p., 15 min): 70% | Wild running - presence, Change from vehicle (30 mg/kg i.p., 15 min): −30% | latency to clonic convulsions (significance in words) (60 mg/kg i.p. vs vehicle): significantly increased | latency to tonic convulsions (significance in words) (60 mg/kg i.p. vs vehicle): significantly increased | latency to wild running (significance in words) (60 mg/kg i.p. vs vehicle): significantly increased | Clonic convulsion - latency, Change from vehicle (60 mg/kg i.p., 30 min, n = 9): +614%*** | Clonic convulsion - presence, % (60 mg/kg i.p., 30 min, n = 9): 11% | Tonic convulsion - latency, Change from vehicle (60 mg/kg i.p., 30 min, n = 9): +426%*** | Tonic convulsion - presence, % (60 mg/kg i.p., 30 min, n = 9): 0% | Wild running - latency, Change from vehicle (60 mg/kg i.p., 30 min, n = 9): +1150%*** | Wild running - presence, % (60 mg/kg i.p., 30 min, n = 9): 22% | number of mice displaying clonic convulsions (significance in words) (3, 10 or 30 mg/kg i.p.): no significant differences | number of mice displaying wild running (significance in words) (3, 10 or 30 mg/kg i.p.): no significant differences | latency to clonic convulsions (significance in words) (3 and 10 mg/kg i.p. vs vehicle): no significant differences | latency to wild running (significance in words) (3 and 10 mg/kg i.p. vs vehicle): no significant differences | number of mice displaying tonic convulsions (significance in words) (3 or 10 mg/kg i.p.): no significant differences | latency to tonic convulsions (significance in words) (3 or 10 mg/kg i.p. vs vehicle): no significant differences

CCCc1cc(O)c(-c2c(C)ccn3ccnc23)c(O)c1 [Compound 2, 2-(7-Methylimidazo[1,2-a]pyridin-8-yl)-5-propylbenzene-1,3-diol]
latency to tonic convulsions (significance in words) (3 mg/kg i.p. vs vehicle): no significant differences | Clonic convulsion - latency, Change from vehicle (3 mg/kg i.p., 30 min): +10% | Clonic convulsion - presence, Change from vehicle (3 mg/kg i.p., 30 min): +25% | Tonic convulsion - latency, Change from vehicle (3 mg/kg i.p., 30 min): +23% | Tonic convulsion - presence, Change from vehicle (3 mg/kg i.p., 30 min): +14% | Wild running - latency, Change from vehicle (3 mg/kg i.p., 30 min): +16% | Wild running - presence, Change from vehicle (3 mg/kg i.p., 30 min): +11% | Clonic convulsion - presence, Total (3 mg/kg i.p., 30 min): 10 | Tonic convulsion - presence, Total (3 mg/kg i.p., 30 min): 8 | Wild running - presence, Total (3 mg/kg i.p., 30 min): 10 | latency to tonic convulsions (significance in words) (10 mg/kg i.p. vs vehicle): significantly increased | Clonic convulsion - latency, Change from vehicle (10 mg/kg i.p., 30 min): +44% | Clonic convulsion - presence, Change from vehicle (10 mg/kg i.p., 30 min): −13% | Tonic convulsion - latency, Change from vehicle (10 mg/kg i.p., 30 min): +400%* | Tonic convulsion - presence, Change from vehicle (10 mg/kg i.p., 30 min): −57% | Wild running - latency, Change from vehicle (10 mg/kg i.p., 30 min): +27% | Wild running - presence, Change from vehicle (10 mg/kg i.p., 30 min): −11% | Clonic convulsion - presence, Total (10 mg/kg i.p., 30 min): 7 | Tonic convulsion - presence, Total (10 mg/kg i.p., 30 min): 3 | Wild running - presence, Total (10 mg/kg i.p., 30 min): 8 | latency to clonic convulsions (significance in words) (30 mg/kg i.p. vs vehicle): significantly increased | latency to tonic convulsions (significance in words) (30 mg/kg i.p. vs vehicle): significantly increased | latency to wild running (significance in words) (30 mg/kg i.p. vs vehicle): significantly increased | Clonic convulsion - latency, Change from vehicle (30 mg/kg i.p., 15 min): +574%** | Tonic convulsion - latency, Change from vehicle (30 mg/kg i.p., 15 min): +400%** | Wild running - latency, Change from vehicle (30 mg/kg i.p., 15 min): +1076%*** | Clonic convulsion - presence, Total (30 mg/kg i.p., 15 min): 2 | Tonic convulsion - presence, Total (30 mg/kg i.p., 15 min): 0 | Wild running - presence, Total (30 mg/kg i.p., 15 min): 2 | latency to clonic convulsions (significance in words) (3 and 10 mg/kg i.p. vs vehicle): no significant differences | latency to wild running (significance in words) (3 and 10 mg/kg i.p. vs vehicle): no significant differences | number of mice displaying clonic convulsions (significance in words) (3 or 10 mg/kg i.p.): no significant differences | number of mice displaying tonic convulsions (significance in words) (3 or 10 mg/kg i.p.): no significant differences | number of mice displaying wild running (significance in words) (3 or 10 mg/kg i.p.): no significant differences
